Biological target: Platelet-activating factor receptor (Oryctolagus cuniculus)
Test: In vitro inhibitory activity against PAF receptor using [3H]PAF as radioligand in rabbit platelets

Compound | IC50
C=C1CCC2[C@@](C)(COC)CCC[C@]2(C)[C@H]1CCC1=CCOC1=O (stereo partly drawn) [3-[2-((1S,5S,8aR)-5-Methoxymethyl-5,8a-dimethyl-2-methylene-decahydro-naphthalen-1-yl)-ethyl]-5H-furan-2-one] | 1.7 µM
C=C1CCC2[C@@](C)(CO)CCC[C@]2(C)[C@H]1CCC1=CC(=O)OC1 (stereo partly drawn) [4-[2-((1S,5S,8aR)-5-Hydroxymethyl-5,8a-dimethyl-2-methylene-decahydro-naphthalen-1-yl)-ethyl]-5H-furan-2-one] | 110 µM
C=C1CCC2[C@](C)(CCC[C@]2(C)C(=O)OC)[C@H]1CCC1=CCOC1=O (stereo partly drawn) [(1S,4aR,5S)-1,4a-Dimethyl-6-methylene-5-[2-(2-oxo-2,5-dihydro-furan-3-yl)-ethyl]-decahydro-naphthalene-1-carboxylic acid methyl ester] | 0.25 µM
C=C1CCC2[C@](C)(CCC[C@]2(C)C(=O)OC)[C@H]1CCC1CCOC1=O (stereo partly drawn) [(1S,4aR,5S)-1,4a-Dimethyl-6-methylene-5-[2-(2-oxo-tetrahydro-furan-3-yl)-ethyl]-decahydro-naphthalene-1-carboxylic acid methyl ester] | 2 µM
C=C1CCC2[C@](C)(CCC[C@]2(C)C(=O)OC)[C@H]1CCC1=CC(=O)OC1 (stereo partly drawn) [(1S,4aR,5S)-1,4a-Dimethyl-6-methylene-5-[2-(5-oxo-2,5-dihydro-furan-3-yl)-ethyl]-decahydro-naphthalene-1-carboxylic acid methyl ester] | 6 µM
C=C1CCC2[C@](C)(CCC[C@]2(C)C(=O)OC)[C@H]1CC/C(=C/CO)CO (stereo partly drawn) [(1S,4aR,5S)-5-((Z)-5-Hydroxy-3-hydroxymethyl-pent-3-enyl)-1,4a-dimethyl-6-methylene-decahydro-naphthalene-1-carboxylic acid methyl ester] | 12 µM
COC(=O)[C@@]1(C)CCC[C@@]2(C)C1CC[C@H](CO)[C@@H]2CCC1=CCOC1=O (stereo partly drawn) [(1S,4aR,5S,6S)-6-Hydroxymethyl-1,4a-dimethyl-5-[2-(2-oxo-2,5-dihydro-furan-3-yl)-ethyl]-decahydro-naphthalene-1-carboxylic acid methyl ester] | 1.6 µM
COC(=O)[C@@]1(C)CCC[C@@]2(C)C1CC[C@](O)(CO)[C@@H]2CCC1=CCOC1=O (stereo partly drawn) [(1S,4aS,5R,6R)-6-Hydroxy-6-hydroxymethyl-1,4a-dimethyl-5-[2-(2-oxo-2,5-dihydro-furan-3-yl)-ethyl]-decahydro-naphthalene-1-carboxylic acid methyl ester] | > 1000 µM

The next lines start with the values.

IC50 | Compound
30 µM | C=C1CCC2[C@@](C)(CO)CCC[C@]2(C)[C@H]1CCC1=CCOC1=O (stereo partly drawn) [3-[2-((1S,5S,8aR)-5-Hydroxymethyl-5,8a-dimethyl-2-methylene-decahydro-naphthalen-1-yl)-ethyl]-5H-furan-2-one]
4.8 µM | COC(=O)[C@@]1(C)CCC[C@@]2(C)C1CCC(C)[C@@H]2CCC1CCOC1=O (stereo partly drawn) [(1S,4aR,5S)-1,4a,6-Trimethyl-5-[2-(2-oxo-tetrahydro-furan-3-yl)-ethyl]-decahydro-naphthalene-1-carboxylic acid methyl ester]
> 1000 µM | C=C1CCC2[C@](C)(CCC[C@]2(C)C(=O)OC)[C@H]1CCc1ccoc1 (stereo partly drawn) [(1S,4aR,5S)-5-(2-Furan-3-yl-ethyl)-1,4a-dimethyl-6-methylene-decahydro-naphthalene-1-carboxylic acid methyl ester]
0.26 µM | COC(=O)[C@@]1(C)CCC[C@@]2(C)C1CCC(=O)[C@@H]2CCC1=CCOC1=O (stereo partly drawn) [(1S,4aS,5R)-1,4a-Dimethyl-6-oxo-5-[2-(2-oxo-2,5-dihydro-furan-3-yl)-ethyl]-decahydro-naphthalene-1-carboxylic acid methyl ester]
2.6 µM | COC(=O)[C@@]1(C)CCC[C@@]2(C)C1CCC(=O)[C@@H]2CCC1CCOC1=O (stereo partly drawn) [(1S,4aS,5R)-1,4a-Dimethyl-6-oxo-5-[2-(2-oxo-tetrahydro-furan-3-yl)-ethyl]-decahydro-naphthalene-1-carboxylic acid methyl ester]
2 µM | COC(=O)[C@@]1(C)CCC[C@@]2(C)C1CC[C@H](O)[C@@H]2CCC1=CCOC1=O (stereo partly drawn) [(1S,4aS,5R,6S)-6-Hydroxy-1,4a-dimethyl-5-[2-(2-oxo-2,5-dihydro-furan-3-yl)-ethyl]-decahydro-naphthalene-1-carboxylic acid methyl ester]
21 µM | C=C1CCC2[C@@](C)(CO)CCC[C@]2(C)[C@H]1CC/C(=C/CO)CO (stereo partly drawn) [(Z)-2-[2-((1S,5S,8aR)-5-Hydroxymethyl-5,8a-dimethyl-2-methylene-decahydro-naphthalen-1-yl)-ethyl]-but-2-ene-1,4-diol]
1 µM | COC(=O)[C@@]1(C)CCC[C@@]2(C)C1CC[C@]1(CO1)[C@@H]2CCC1=CCOC1=O (stereo partly specified) [methyl 5,8a-dimethyl-1-[2-(2-oxo-2,5-dihydro-3-furanyl)ethyl]spiro[perhydronaphthalene-2,2'-(dihydrooxirane)]-5-carboxylate]

— BindingDB's records for doi:10.1021/jm970569j (Seoul National University, 1998)
